Patent US11051515B2, “3-acyl-benzamides and their use as herbicides” (Bayer Aktiengesellschaft, priority 2017, dated 2021)

How the values were obtained:
ALOMY = assay: Pre-emergence action against ALOMY; format: in vivo, Alopecurus myosuroides; details: dosage 320 g/ha, pre-emergence, scored visually after 3 weeks vs untreated controls, 100% = plants have died, 0% = like control plants
In short: (§1)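 Seeds sown in sandy loam in wood-fiber pots and covered with soil. Greenhouse growth; visual damage scored after 3 weeks versus untreated controls (100% = dead, 0% = like control).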

AVEFA [1] = assay: Pre-emergence action against AVEFA; format: in vivo, Avena fatua; details: dosage 320 g/ha, scored visually after 3 weeks vs untreated controls
In short: as §1

CYPES [2] = assay: Pre-emergence action against CYPES; format: in vivo, Cyperus esculentus; details: pre-emergence, dosage 320 g/ha, scored visually after 3 weeks vs untreated controls
In short: as §1

ECHCG [3] = assay: Pre-emergence action against ECHCG; format: in vivo, Echinochloa crus-galli; details: pre-emergence, dosage 320 g/ha, scored visually after 3 weeks vs untreated controls
In short: as §1

LOLRI = assay: Pre-emergence action against LOLRI; format: in vivo, Lolium rigidum; details: dosage 320 g/ha, scored visually after 3 weeks vs untreated controls
From the text: (§2) Seeds of monocotyledonous and dicotyledonous weed plants and crop plants are laid out in sandy loam soil in wood-fiber pots and covered with soil. The compounds of the invention, formulated in the form of wettable powders (WP) or as emulsion concentrates (EC), are then applied to the surface of the covering soil in the form of an aqueous suspension or emulsion at a water application rate equating to […], with addition of 0.2% wetting agent. After the treatment, the pots are placed in a greenhouse and kept under good growth conditions for the trial plants. The damage to the test plants is scored visually after a test period of 3 weeks by comparison with untreated controls (herbicidal activity in percent (%): 100% activity=the plants have died, 0% activity=like control plants).

SETVI [4] = assay: Pre-emergence action against SETVI; format: in vivo, Setaria viridis; details: pre-emergence, dosage 320 g/ha, scored visually after 3 weeks vs untreated controls
In short: as §1

ABUTH [5] = assay: Pre-emergence action against ABUTH; format: in vivo, Abutilon theophrasti; details: pre-emergence, dosage 320 g/ha, scored visually after 3 weeks vs untreated controls
In short: as §1

AMARE [6] = assay: Pre-emergence action against AMARE; format: in vivo, Amaranthus retroflexus; details: pre-emergence, dosage 320 g/ha, scored visually after 3 weeks vs untreated controls
In short: as §1

MATIN [7] = assay: Pre-emergence action against MATIN; format: in vivo, Matricaria inodora; details: Dosage 320 g/ha, pre-emergence
In short: as §1

PHBPU [8] = assay: Pre-emergence action against PHBPU; format: in vivo, Pharbitis purpurea; details: Dosage 320 g/ha, pre-emergence
In short: as §1

STEME [9] = assay: Pre-emergence action against STEME; format: in vivo, Stellaria media; details: Dosage 320 g/ha, pre-emergence
In short: as §1

VIOTR [10] = assay: Pre-emergence action against VIOTR; format: in vivo, Viola tricolor; details: Dosage 320 g/ha, pre-emergence
In short: as §1

VERPE [11] = assay: Pre-emergence action against VERPE; format: in vivo, Veronica persica; details: Dosage 320 g/ha, pre-emergence
In short: as §1

HORMU = assay: Pre-emergence action against HORMU; format: in vivo, Hordeum murinum; details: Dosage 320 g/ha
From the text: as §2

ECHCG [12] = assay: Post-emergence action against ECHCG; format: in vivo, Echinochloa crus-galli; details: post-emergence, dosage 80 g/ha, visual assessment about 3 weeks after treatment vs untreated controls
In short: (§3)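 Weeds grown in sandy loam in greenhouse, treated at one-leaf stage (2–3 weeks after sowing) with WP or EC formulations sprayed as aqueous suspension/emulsion at 600 to […] water with 0.2% wetting agent. Visual rating after about 3 weeks versus untreated controls, as % herbicidal action (100% = plants dead, 0% = like control).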

ABUTH [13] = assay: Post-emergence action against ABUTH; format: in vivo, Abutilon theophrasti; details: post-emergence, dosage 80 g/ha, visual assessment about 3 weeks after treatment vs untreated controls
In short: as §3

AMARE [14] = assay: Post-emergence action against AMARE; format: in vivo, Amaranthus retroflexus; details: post-emergence, dosage 80 g/ha, visual assessment about 3 weeks after treatment vs untreated controls
In short: as §3

MATIN [15] = assay: Post-emergence action against MATIN; format: in vivo, Matricaria inodora; details: post-emergence, dosage 80 g/ha, visual assessment about 3 weeks after treatment vs untreated controls
In short: as §3

PHBPU [16] = assay: Post-emergence action against PHBPU; format: in vivo, Pharbitis purpurea; details: post-emergence, dosage 80 g/ha
In short: as §3

STEME [17] = assay: Post-emergence action against STEME; format: in vivo, Stellaria media; details: post-emergence, dosage 80 g/ha
In short: as §3

VIOTR [18] = assay: Post-emergence action against VIOTR; format: in vivo, Viola tricolor; details: post-emergence, dosage 80 g/ha
In short: as §3

VERPE [19] = assay: Post-emergence action against VERPE; format: in vivo, Veronica persica; details: Veronica persica, 504 h, dosage 80 g/ha
In short: as §3

AVEFA [20] = assay: Post-emergence action against AVEFA; format: in vivo, Avena fatua; details: post-emergence, dosage 80 g/ha, visual assessment about 3 weeks after treatment vs untreated controls
In short: as §3

SETVI [21] = assay: Post-emergence action against SETVI; format: in vivo, Setaria viridis; details: post-emergence, dosage 80 g/ha, visual assessment about 3 weeks after treatment vs untreated controls
In short: as §3

POLCO [22] = assay: Pre-emergence action against POLCO; format: in vivo, Polygonum convolvulus; details: Dosage 320 g/ha, pre-emergence
In short: as §1

CYPES [23] = assay: Post-emergence action against CYPES; format: in vivo, Cyperus esculentus; details: post-emergence, dosage 80 g/ha, visual assessment about 3 weeks after treatment vs untreated controls
In short: as §3

POLCO [24] = assay: Post-emergence action against POLCO; format: in vivo, Polygonum convolvulus; details: post-emergence, dosage 80 g/ha
In short: as §3

## CCCC(=O)c1c(C(F)(F)F)ccc(C(=O)Nc2nnnn2C)c1Cl [1-139]
ALOMY; Alopecurus myosuroides, 504 h, read-out: Pre-emergence action against ALOMY (herbicidal activity in percent)
  pest or weed control at 320 g/ha: 100%
AVEFA [1]; Avena fatua, 504 h, read-out: Pre-emergence action against AVEFA (herbicidal activity)
  pest or weed control at 320 g/ha: 100%
CYPES [2]; Cyperus esculentus, 504 h, read-out: Pre-emergence action against CYPES (herbicidal activity)
  pest or weed control at 320 g/ha: 90%
ECHCG [3]; Echinochloa crus-galli, 504 h, read-out: Pre-emergence action against ECHCG (herbicidal activity)
  pest or weed control at 320 g/ha: 100%
LOLRI; Lolium rigidum, 504 h, read-out: Pre-emergence action against LOLRI (herbicidal activity)
  pest or weed control at 320 g/ha: 100%
SETVI [4]; Setaria viridis, 504 h, read-out: SETVI (Table B8, pre-emergence herbicidal activity)
  pest or weed control at 320 g/ha: 100%
ABUTH [5]; Abutilon theophrasti, 504 h, read-out: Pre-emergence action against ABUTH (herbicidal activity)
  pest or weed control at 320 g/ha: 100%
AMARE [6]; Amaranthus retroflexus, 504 h, read-out: Pre-emergence action against AMARE (herbicidal activity)
  pest or weed control at 320 g/ha: 100%
MATIN [7]; Tripleurospermum inodorum, 504 h
  pest or weed control at 320 g/ha: 100%
PHBPU [8]; Ipomoea purpurea, 504 h
  pest or weed control at 320 g/ha: 100%
STEME [9]; Stellaria media, 504 h
  pest or weed control at 320 g/ha: 100%
VIOTR [10]; Viola tricolor, 504 h
  pest or weed control at 320 g/ha: 100%
VERPE [11]; Veronica persica, 504 h
  pest or weed control at 320 g/ha: 100%
HORMU; Hordeum murinum, 504 h
  pest or weed control at 320 g/ha: 90%
ECHCG [12]; Echinochloa crus-galli, 504 h, read-out: Post-emergence action against ECHCG (herbicidal action in percent)
  pest or weed control at 80 g/ha: 90%
ABUTH [13]; Abutilon theophrasti, 504 h, read-out: Post-emergence action against ABUTH (herbicidal action in percent)
  pest or weed control at 80 g/ha: 90%
AMARE [14]; Amaranthus retroflexus, 504 h, read-out: Post-emergence action against AMARE (herbicidal action in percent)
  pest or weed control at 80 g/ha: 100%
MATIN [15]; Tripleurospermum inodorum, 504 h, read-out: Post-emergence action against MATIN (herbicidal action in percent)
  pest or weed control at 80 g/ha: 90%
PHBPU [16]; Ipomoea purpurea, 504 h
  pest or weed control at 80 g/ha: 100%
STEME [17]; Stellaria media, 504 h
  pest or weed control at 80 g/ha: 100%
VIOTR [18]; Viola tricolor, 504 h
  pest or weed control at 80 g/ha: 100%
VERPE [19]
  pest or weed control at 80 g/ha: 80%

## Cn1nnnc1NC(=O)c1ccc(C(F)(F)F)c(C(=O)C2(C)CC2)c1Cl [1-147]
ALOMY
  Pre-emergence action against ALOMY (herbicidal activity in percent): 100%
AVEFA [1]
  Pre-emergence action against AVEFA (herbicidal activity): 90%
CYPES [2]
  Pre-emergence action against CYPES (herbicidal activity): 100%
ECHCG [3]
  Pre-emergence action against ECHCG (herbicidal activity): 100%
LOLRI
  Pre-emergence action against LOLRI (herbicidal activity): 90%
SETVI [4]
  SETVI (Table B8, pre-emergence herbicidal activity): 100%
ABUTH [5]
  Pre-emergence action against ABUTH (herbicidal activity): 100%
AMARE [6]
  Pre-emergence action against AMARE (herbicidal activity): 100%
MATIN [7]
  Pre-emergence action against MATIN: 100%
STEME [9]
  Pre-emergence action against STEME: 100%
VIOTR [10]
  Pre-emergence action against VIOTR: 100%
VERPE [11]
  Pre-emergence action against VERPE: 100%
HORMU
  Pre-emergence action against HORMU: 90%
AVEFA [20]
  Post-emergence action against AVEFA (herbicidal action in percent): 100%
ECHCG [12]
  Post-emergence action against ECHCG (herbicidal action in percent): 100%
SETVI [21]
  Post-emergence action against SETVI (herbicidal action in percent): 100%
ABUTH [13]
  Post-emergence action against ABUTH (herbicidal action in percent): 100%
AMARE [14]
  Post-emergence action against AMARE (herbicidal action in percent): 100%
MATIN [15]
  Post-emergence action against MATIN (herbicidal action in percent): 90%
PHBPU [16]
  Post-emergence action against PHBPU: 80
STEME [17]
  Post-emergence action against STEME: 80

## CCn1nnnc1NC(=O)c1ccc(C(F)F)c(C(C)=O)c1Cl [2-164]
ALOMY
  Pre-emergence action against ALOMY (herbicidal activity in percent): 100%
AVEFA [1]
  Pre-emergence action against AVEFA (herbicidal activity): 90%
CYPES [2]
  Pre-emergence action against CYPES (herbicidal activity): 100%
ECHCG [3]
  Pre-emergence action against ECHCG (herbicidal activity): 100%
LOLRI
  Pre-emergence action against LOLRI (herbicidal activity): 80%
SETVI [4]
  SETVI (Table B8, pre-emergence herbicidal activity): 100%
ABUTH [5]
  Pre-emergence action against ABUTH (herbicidal activity): 100%
AMARE [6]
  Pre-emergence action against AMARE (herbicidal activity): 100%
MATIN [7]
  Pre-emergence action against MATIN: 100%
PHBPU [8]
  Pre-emergence action against PHBPU: 90%
POLCO [22]
  Pre-emergence action against POLCO: 100%
STEME [9]
  Pre-emergence action against STEME: 100%
VIOTR [10]
  Pre-emergence action against VIOTR: 100%
VERPE [11]
  Pre-emergence action against VERPE: 100%
HORMU
  Pre-emergence action against HORMU: 80%
CYPES [23]
  Post-emergence action against CYPES (herbicidal action in percent): 90%
ECHCG [12]
  Post-emergence action against ECHCG (herbicidal action in percent): 100%
SETVI [21]
  Post-emergence action against SETVI (herbicidal action in percent): 100%
ABUTH [13]
  Post-emergence action against ABUTH (herbicidal action in percent): 100%
AMARE [14]
  Post-emergence action against AMARE (herbicidal action in percent): 100%
MATIN [15]
  Post-emergence action against MATIN (herbicidal action in percent): 100%
PHBPU [16]
  Post-emergence action against PHBPU: 100
POLCO [24]
  Post-emergence action against POLCO: 80
STEME [17]
  Post-emergence action against STEME: 100
VIOTR [18]
  Post-emergence action against VIOTR: 100
